Results published in ChEMBL document CHEMBL4028866 (J Med Chem, 2017).

Tests used:
[1] = organism: Rattus norvegicus; settings: in vivo, po
[2] = in vivo; settings: Sprague-Dawley, rat, iv, 1 mg/mg
[3] = in vivo; settings: Sprague-Dawley, rat, po, 10 mg/mg
[4] = in vivo; settings: Sprague-Dawley, rat, iv, 1 mg/mg; remark: listed apart in the source
[5] = in vivo; settings: Sprague-Dawley, rat, po, 10 mg/mg; remark: listed apart in the source
[6] = in vivo; settings: Sprague-Dawley, rat, iv, 1 mg/mg; remark: listed apart in the source
[7] = in vivo; settings: Sprague-Dawley, rat, po, 10 mg/mg; remark: listed apart in the source
[8] = in vivo; settings: Sprague-Dawley, rat, iv, 1 mg/mg; remark: listed apart in the source
[9] = in vivo; settings: Sprague-Dawley, rat, po, 10 mg/mg; remark: listed apart in the source
[10] = in vivo; settings: Sprague-Dawley, rat, iv, 1 mg/mg; remark: listed apart in the source
[11] = in vivo; settings: Sprague-Dawley, rat, po, 10 mg/mg; remark: listed apart in the source
[12] = in vivo; settings: Sprague-Dawley, rat, iv, 1 mg/mg; remark: listed apart in the source
[13] = in vivo; settings: Sprague-Dawley, rat, iv, 1 mg/mg; remark: listed apart in the source
[14] = in vivo; settings: Sprague-Dawley, rat, po, 10 mg/mg; remark: listed apart in the source
[15] = in vivo; settings: Sprague-Dawley, rat, iv, 1 mg/mg; remark: listed apart in the source
[16] = in vivo; settings: Sprague-Dawley, rat, po, 10 mg/mg; remark: listed apart in the source
[17] = in vivo; settings: Sprague-Dawley, rat, po, 10 mg/mg; remark: listed apart in the source

Row | Vz [1] | AUC(0-t) [2] | AUC(0-t) [3] | AUC(0-inf) [4] | AUC(0-inf) [5] | Cmax [6] | Cmax [7] | Tmax [8] | Tmax [9] | half-life [10] | half-life [11] | Vd [12] | clearance [13] | CL/F [14] | MRT inf [15] | MRT inf [16] | bioavailability [17] | SMILES
1 | 4.078 L/kg | 1930 ng·h/mL | 14500 ng·h/mL | 1970 ng·h/mL | 15000 ng·h/mL | 728 ng/mL | 1140 ng/mL | 1.8 min | 8 h | 4.38 h | 3.73 h | 3.53 L/kg | 9.35 mL/min/kg | 12.6 mL/min/kg | 5.83 h | 10.1 h | 75.9% | CC(C)(C)c1cc(NC(=O)Nc2ccc(-c3cn4c(n3)sc3cc(OCCN5CCOCC5)ccc34)cc2)no1 [QUIZARTINIB]
2 | 0.06082 L/kg | 520 ng·h/mL | 978 ng·h/mL | 525 ng·h/mL | 991 ng·h/mL | 839 ng/mL | 83.5 ng/mL | 1.02 min | 6.66 h | 3.34 h | 3.61 h | – | 0.0345 mL/min/kg | 0.193 mL/min/kg | 3.13 h | 7.22 h | 18.8% | CC(C)(C)c1cc(NC(=O)Nc2ccc(-n3nc(-c4ccc(OCCN5CCOCC5)cc4)c4c(N)ncnc43)cc2)no1
